± gives the expanded uncertainty stated by the source.
Experiment: xn = mol fraction of the nth substance listed
Conditions: 102 kPa, Liquid; for viscosity: Concentric cylinders viscometry; for speed of sound: Frequency=3 MHz, Single path-length method; for mass density: Vibrating tube method

CCCCCCC1CCCCC1 [hexylcyclohexane] + CCCCCCCCCCCCCCCC
Conditions	mass density [kg/m3]	speed of sound [m/s]	viscosity [mPa·s]
293.15 K, x1 = 0.1003	775.83 ± 0.81	1357.1 ± 0.7	3.35 ± 0.03
293.15 K, x1 = 0.2002	778.43 ± 0.81	1356.8 ± 0.7	3.21 ± 0.02
293.15 K, x1 = 0.2996	781.19 ± 0.81	1356.9 ± 0.8	3.09 ± 0.02
293.15 K, x1 = 0.4192	784.77 ± 0.81	1357 ± 0.9	2.93 ± 0.02
293.15 K, x1 = 0.5004	787.39 ± 0.82	1357.1 ± 0.9	2.82 ± 0.02
293.15 K, x1 = 0.603	790.94 ± 0.82	1357.4 ± 1	2.7 ± 0.02
293.15 K, x1 = 0.8003	798.59 ± 0.83	1358.6 ± 1.2	2.44 ± 0.02
293.15 K, x1 = 1	807.71 ± 0.84	1361 ± 1.3	2.2 ± 0.02
303.15 K, x1 = 0.1003	768.88 ± 0.81	1319.8 ± 0.7	2.66 ± 0.02
303.15 K, x1 = 0.2002	771.48 ± 0.81	1319.5 ± 0.7	2.57 ± 0.02
303.15 K, x1 = 0.2996	774.23 ± 0.81	1319.6 ± 0.8	2.47 ± 0.02
303.15 K, x1 = 0.4192	777.8 ± 0.81	1319.6 ± 0.9	2.36 ± 0.02
303.15 K, x1 = 0.5004	780.41 ± 0.82	1319.7 ± 0.9	2.28 ± 0.02
303.15 K, x1 = 0.603	783.93 ± 0.82	1319.8 ± 1	2.19 ± 0.02
303.15 K, x1 = 0.8003	791.52 ± 0.83	1320.7 ± 1.2	2 ± 0.02
303.15 K, x1 = 1	800.56 ± 0.84	1322.1 ± 1.3	1.81 ± 0.02
313.15 K, x1 = 0.1003	761.95 ± 0.81	1283.2 ± 0.7	2.17 ± 0.02
313.15 K, x1 = 0.2002	764.54 ± 0.81	1282.8 ± 0.7	2.1 ± 0.02
313.15 K, x1 = 0.2996	767.28 ± 0.81	1282.9 ± 0.8	2.02 ± 0.02
313.15 K, x1 = 0.4192	770.83 ± 0.81	1282.8 ± 0.9	1.94 ± 0.02
313.15 K, x1 = 0.5004	773.42 ± 0.82	1282.9 ± 0.9	1.87 ± 0.02
313.15 K, x1 = 0.603	776.92 ± 0.82	1282.9 ± 1	1.8 ± 0.02
313.15 K, x1 = 0.8003	784.45 ± 0.83	1283.5 ± 1.2	1.65 ± 0.02
313.15 K, x1 = 1	793.4 ± 0.84	1284.2 ± 1.3	1.51 ± 0.02
323.15 K, x1 = 0.1003	755.02 ± 0.81	1247.3 ± 0.7	1.8 ± 0.01
323.15 K, x1 = 0.2002	757.6 ± 0.81	1246.9 ± 0.7	1.75 ± 0.01
323.15 K, x1 = 0.2996	760.32 ± 0.81	1246.9 ± 0.8	1.68 ± 0.01
323.15 K, x1 = 0.4192	763.85 ± 0.81	1246.7 ± 0.9	1.62 ± 0.01
323.15 K, x1 = 0.5004	766.42 ± 0.82	1246.7 ± 0.9	1.57 ± 0.01
323.15 K, x1 = 0.603	769.89 ± 0.82	1246.6 ± 1	1.52 ± 0.02
323.15 K, x1 = 0.8003	777.35 ± 0.83	1246.9 ± 1.2	1.4 ± 0.02
323.15 K, x1 = 1	786.22 ± 0.84	1247.1 ± 1.3	1.29 ± 0.02
333.15 K, x1 = 0.1003	748.09 ± 0.81	1212.3 ± 0.7	1.51 ± 0.01
333.15 K, x1 = 0.2002	750.65 ± 0.81	1211.9 ± 0.7	1.47 ± 0.01
333.15 K, x1 = 0.2996	753.35 ± 0.81	1211.7 ± 0.8	1.42 ± 0.01
333.15 K, x1 = 0.4192	756.86 ± 0.81	1211.5 ± 0.9	1.37 ± 0.01
333.15 K, x1 = 0.5004	759.41 ± 0.82	1211.4 ± 0.9	1.33 ± 0.01
333.15 K, x1 = 0.603	762.86 ± 0.82	1211.2 ± 1	1.29 ± 0.01
333.15 K, x1 = 0.8003	770.24 ± 0.83	1211.1 ± 1.2	1.2 ± 0.01
333.15 K, x1 = 1	779.02 ± 0.84	1211 ± 1.3	1.09 ± 0.01
343.15 K, x1 = 0.1003	741.2 ± 0.8	–	1.29 ± 0.01
343.15 K, x1 = 0.2002	743.7 ± 0.8	–	1.27 ± 0.01
343.15 K, x1 = 0.2996	746.5 ± 0.8	–	1.22 ± 0.01
343.15 K, x1 = 0.4192	749.9 ± 0.8	–	1.18 ± 0.01
343.15 K, x1 = 0.5004	752.4 ± 0.8	–	1.15 ± 0.01
343.15 K, x1 = 0.603	755.9 ± 0.8	–	1.13 ± 0.01
343.15 K, x1 = 0.8003	763.1 ± 0.8	–	1.05 ± 0.01
343.15 K, x1 = 1	771.8 ± 0.8	–	0.964 ± 0.013
353.15 K, x1 = 0.1003	734.2 ± 0.8	–	1.12 ± 0.01
353.15 K, x1 = 0.2002	736.7 ± 0.8	–	1.09 ± 0.01
353.15 K, x1 = 0.2996	739.5 ± 0.8	–	1.06 ± 0.01
353.15 K, x1 = 0.4192	742.9 ± 0.8	–	1.02 ± 0.01
353.15 K, x1 = 0.5004	745.4 ± 0.8	–	1 ± 0.01
353.15 K, x1 = 0.603	748.8 ± 0.8	–	0.971 ± 0.012
353.15 K, x1 = 0.8003	756 ± 0.8	–	0.919 ± 0.013
353.15 K, x1 = 1	764.6 ± 0.8	–	0.847 ± 0.013
363.15 K, x1 = 0.1003	727.3 ± 0.8	–	0.981 ± 0.012
363.15 K, x1 = 0.2002	729.7 ± 0.8	–	0.977 ± 0.012
363.15 K, x1 = 0.2996	732.5 ± 0.8	–	0.931 ± 0.012
363.15 K, x1 = 0.4192	735.9 ± 0.8	–	0.901 ± 0.012
363.15 K, x1 = 0.5004	738.3 ± 0.8	–	0.88 ± 0.012
363.15 K, x1 = 0.603	741.7 ± 0.8	–	0.873 ± 0.012
363.15 K, x1 = 0.8003	748.8 ± 0.8	–	0.817 ± 0.012
363.15 K, x1 = 1	757.3 ± 0.8	–	0.758 ± 0.012

— the NIST ThermoML archive (doi:10.1021/acs.jced.8b00692)
